Laboratory results as given in US20050042714A1, “Glycoconjugates of sialic acid derivates, methods for their production and use thereof” (priority 2001, published 2005).

Tests used:
CD75s in BJA-B K20 cells = test: de novo expression of sialoglycan CD75s by indirect immunofluorescence (antibody HH2); type: cell-based, human; settings: serum-free, 5 mM, 0-6 h
Procedure: Kinetics of 9-iodo-NeuAc-induced expression of sialoglycan CD75s in BJA-B K20 cells in comparison with its precursor 6-iodo-ManNAc. Cells were cultivated under serum-free conditions for at least 7 d and then either ManNAc, 6-iodo-ManNAc, 9-iodo-NeuAc or NeuAc (each 5 mM) was added. The de novo expression of CD75s was monitored at the indicated time points by indirect immunofluorescence using fixed and permeabilized cells. Representative confocal pictures of two independent experiments are shown.
The superiority of biosynthetic incorporation of sialic acid variants by NeuAc derivatives over derivatized ManNAc precurors was shown by directly comparing 9-iodo-NeuAc and the corresponding 6-iodo-ManNAc. K20 cells cultivated under serum-free conditions were incubated for 0-6 h with either 9-iodo-NeuAc or 6-iodo-ManNAc prior to analysis of CD75s expression. CD75s is an α-2,6 sialylated cell surface antigen of mature B-lymphocytes which is not detectable with the monoclonal antibody HH2 in K20 cells cultured in the absence of serum. […] We conclude that presentation of C9-modified sialic acids on the cell surface is only possible by medium supplementation with sialic acid analogues, but not with ManNAc analogues. […]

HL60-I cells [1] = test: uptake of peracetylated/esterified NeuAc: VVA and TML lectin staining by flow cytometry; type: cell-based, human; settings: for effect on cell surface sialylation (VVA and TML binding): 0.03 to 1 mM (NeuAc 1 or 5 mM), 0.5% DMSO
Procedure: Peracetylation of NeuAc only facilitates uptake if the carboxyl group is additionally esterified. Hyposialylated HL60-I cells were cultivated in the presence of indicated synthetic sialic acid analogue (stock solution 200 mM in DMSO) ranging from 0.03 to 1 mM or 0, 1 or 5 mM NeuA for 72 h with DMSO concentrations adjusted to 0.5%. Cells were stained with either directly fluorochrome-coupled lectin VVA, or biotin-coupled lectin (TML) and streptavidin-FITC for analysis by flow cytometry. Values given are relative factors of change of the mean fluorescence intensity of pretreated cells relative to untreated cells. The bars represent arithmetic means±SD (n=3). Molecular structures are given below the diagram.
Sugars are very hydrophilic and it has been shown that increasing the hydrophobicity by peracetylation of hydroxyl groups enables or facilitates uptake of disaccharides (Collins, B. E., Fralich, T. J., Itonori, S., Ichikawa, Y. and Schnaar, R. L. (2000) Glycobiology, 10, 11-20; Sarkar, A. K., Fritz, T. A., Taylor, W. H. and Esko, J. D. (1995) Proc Natl Acad Sci USA, 92, 3323-7; Sarkar, A. K., Rostand, K. S., Jain, R. K., Matta, K. L. and Esko, J. D. (1997) J Biol Chem, 272, 25608-16). For ManNAc derivatives it has been shown that peracetylation reduces required medium concentrations (Collins et al., 2000). The acetyl groups are cleaved-off intracellularly by cellular esterases (Collins et al., 2000; Sarkar et al., 1995; Sarkar et al., 1997) and the derivatives are then processed as known for the non-acetylated sugars. In order to address the question whether peracetylation also facilitates uptake of N-acetylneuraminic acid, HL60-I cells were cultivated in the presence of peracetylated NeuAc at concentrations ranging from 0.03 mM to 1 mM for 3 days. Changes in cell surface sialylation were measured by flow cytometry using Vicia Villosa agglutinin (VVA) and Tritrichomonas mobilensis lectin (TML). […] This represents a reduction in concentration by more than 16-fold and is in a similar range as reported for peracetylated ManNAc and ManNAc (Collins et al., 2000).
(§1) Lyophilized FITC-conjugated lectins Vicia villosa (VVA) was obtained from Sigma, dissolved in H2O (1 mg/ml), aliquoted and stored at −20° C. according to the manufacturer's instructions. FITC-conjugated Limax flavus agglutinin (LFA) was from EY Laboratories (San Manteo, Calif., USA) and biotin-coupled Tritrichomonas mobilensis agglutinin (TLM) from Calbiochem. Lectin staining procedure and fluorescence-activated cell scanning on a Becton Dickinson FACScan cytometer using Cellquest II software were carried out as described (Keppler, O. T., Molden-hauer, G., Oppenländer, M., Schwartz-Albiez, R., Berger, E. G., Funderud, S., and Pawlita, M. (1992) Eur J Immunol 22(11), 2777-81). Briefly, cells (3×10^5) were washed twice in cold PBS and then incubated in 100 μl PBS/0.05% NaN3, containing either fluorochrome-conjugated lectins VVA (50 μg/ml), LFA (20 μg/ml), or biotinylated TLM (20 μg/ml) for 45 min on ice in the dark. For biotinylated TLM a secondary incubation step with steptavidin-FITC (20 μg/ml) (Sigma) for 30 min on ice in the dark is required. After washing with PBS, cells were resuspended in 300 μl PBS and analyzed by flow cytometry.

HL60-I cells [2] = test: metabolic complementation assay: lectin staining (VVA, LFA, TLM) of analogue-treated cells by flow cytometry; type: cell-based, human; settings: 5 mM, 24 h; for effect on VVA binding: decrease = masking of GalNAc by sialic acid
Procedure: Medium supplementation with some synthetic sialic acid analogues restores cell surface sialylation in hyposialylated HL60-I cells. Cells were cultivated in the presence of indicated synthetic sialic acid analogue (5 mM) for 24 h and stained with either directly fluorochrome-coupled lectins (VVA, LFA) or biotin-coupled lectin (TLM) and streptavidin-FITC and analyzed by flow cytometry. Values are given as “relative factor of change” (RFC) of the “mean fluorescence intensity” (MFI) of sialic acid-treated cells relative to untreated cells. The bars represent arithmetic means±SD (n^34) of one (x) or ≧two experiments.
To test whether cells can incorporate synthetic sialic acid analogues from the culture medium, a metabolic complementation assay was performed on endogenously hyposialylated, UDP-GlcNAc-2-epimerase-deficient HL60-I cells.
Cells were cultivated for 24 h in the presence of one of 16 different synthetic sialic acid analogues, carrying distinct C5 or C9 modifications (FIG. 1), and subsequently, changes in cell surface sialylation were assessed by flow cytometry using three fluorochrome-conjugated sialic acid-sensitive lectins. Vicia villosa agglutinin (VVA) detects GalNAc residues, and its binding sites can be masked by the addition of terminal sialic acid residues.
In sugar supplementation assays, cells seeded at 5×10^5 cells/ml in culture medium buffered with 40 mM HEPES (pH 7.2) were cultivated for 24 h in the presence or absence of 5 mM sialic acids (stocks of 100 mM dissolved in H2O, stored at 4° C.).
as §1

BJA-B K20 cells = test: HPLC of membrane-associated sialic acids from analogue-treated cells; type: cell-based, human; settings: serum-free, 5 mM, 48 h
Procedure: Sialic acid analogues are incorporated in cell surface glycoconjugates. HPLC chromatograms of DMB-derivatised sialic acids hydrolysed from glycoproteins of sialic acid analogue-treated BJA-B K20 cells. (A) standards, (B) untreated cells, (C) cells cultivated in 5-N-fluoroacNeu, (D) cells cultivated in 9-iodo-NeuAc. Peaks were identified as follows: NeuGc (internal standard), NeuAc, 5-N-fluoroac-Neu, 9-iodo-NeuAc, Na-pyruvate (internal standard). Internal standards were added to each sample.
To confirm that synthetic sialic acid analogues supplementing the medium were taken up and metabolically incorporated as analogues into surface sialoglyco-conjugates the membrane-associated sialic acid fraction was analyzed by High Performance Liquid Chromatography (HPLC). […]
To confirm that the modifications are still present after incorporation into glycoconjugates sialic acids were cleaved off cell surfaces and analyzed by HPLC. […] Sialic acids derivation was performed according to a method as given below and samples were analyzed on a reversed-phase C18 column as described (Keppler, O. T., Stehling, P., Herrmann, M., Kayser, H., Grunow, D., Reutter, W., and Pawlita, M. (1995) J Biol Chem 270(3), 1308-14).

[3] = stability under physiological conditions; type: physicochemical; settings: most likely hydrolysed to NeuAc in the cytoplasm

Compound | effect on cell surface sialylation (VVA and TML binding) (HL60-I cells [1]; HL60-I cells, 72 h) | effect on LFA binding (HL60-I cells [2]) | effect on TLM binding (HL60-I cells [2]) | effect on VVA binding (HL60-I cells [2]) | share of membrane-associated sialic acids consisting of the analogue (BJA-B K20 cells) [%] | also measured
CC(=O)N[C@@H]1C(O)O[C@H](CI)[C@@H](O)[C@@H]1O (some centres unmarked) [6-iodo-ManNAc, reference compound] | – | – | – | – | – | effect on CD75s expression within 6 h (CD75s in BJA-B K20 cells): did not show any effect
COC(=O)C1(OC(C)=O)C[C@H](OC(C)=O)[C@@H](NC(C)=O)[C@H]([C@H](OC(C)=O)[C@@H](COC(C)=O)OC(C)=O)O1 (some centres unmarked) [NeuAcperOAc-Me-ester] | strongly increased cell surface sialylation | – | – | – | – | reduction in concentration relative to NeuAc (HL60-I cells [1]; 0.3 mM vs 5 mM NeuAc): more than 16 fold; medium concentration showing similar effects as 5 mM NeuAc (HL60-I cells [1]; HL60-I cells, 72 h): 0.3 mM
CC(=O)NC1C(OC(C)=O)CC(OC(C)=O)(C(=O)O)OC1C(OC(C)=O)C(COC(C)=O)OC(C)=O (centres unmarked) [NeuAcperOAc] | no effect on cell surface sialylation | – | – | – | – | –
CC(=O)N[C@H]1[C@H]([C@H](O)[C@H](O)CI)OC(O)(C(=O)O)C[C@@H]1O (some centres unmarked) [analogue f, 5-N-acetyl-9-deoxy-9-iodo-neuraminic acid] | – | increased binding of LFA | increased binding | significantly decreased VVA-binding | 86.1 | increase of LFA binding (relative factor of change of mean fluorescence intensity vs untreated cells) (HL60-I cells [2]): 19.2 fold; increase of TLM binding (relative factor of change of mean fluorescence intensity vs untreated cells) (HL60-I cells [2]): 6.4 fold; time to strong intracellular CD75s signal (CD75s in BJA-B K20 cells): ≤ 1 h
O=C(CF)N[C@H]1[C@H]([C@H](O)[C@H](O)CO)OC(O)(C(=O)O)C[C@@H]1O (some centres unmarked) [analogue j, 5-N-fluoroacetyl-neuraminic acid] | – | increased binding of LFA | increased binding | significantly decreased VVA-binding | 90.5 | –
COC(=O)C1(O)C[C@H](O)[C@@H](NC(C)=O)[C@H]([C@H](O)[C@H](O)CO)O1 (some centres unmarked) [analogue o, methyl N-acetyl neuraminate] | did not affect uptake | increased binding of LFA | increased binding | significantly decreased VVA-binding | – | effect on LFA binding (HL60-I cells [2]; listed as NeuAc-Me-Ester): very similar to those of NeuAc; effect on TLM binding (HL60-I cells [2]; listed as NeuAc-Me-Ester): very similar to those of NeuAc; stability under physiological conditions [3]: unstable under physiological conditions
